Reference: US10980775B2, “Composition for prevention or treatment of cutaneous disorder” (XANTIAL, priority 2015, dated 2021)
Several values for one entry are separate records, joined by “and”; a condition that tells them apart may be missing. Equal values may be shown once.

Columns and labels:
[1] = tested on: collagen I expression in NHDF; assay: Collagen I expression in NHDF stimulated with vitamin C+TGF-beta, in situ immunolabeling; type: cell-based, human; settings: 50 μg/ml, 72 hours
Experimental: Analysis of collagen I expression in NHDF stimulated with vitamin C+TGF-beta by in situ immunolabeling. Activated HMVEC release TGF-beta which stimulates extracellular matrix synthesis by NHDF. TGF-beta stimulates the synthesis of collagen and vitamin C its release, creating experimental conditions close to TSC pathology conditions.
Normal Human Dermal Fibroblasts (NHDF) • Cell type: NHDF, used at the 8th passage • Culture conditions: 37° C., 5% CO2 • Culture medium: DMEM supplemented with L-glutamine 2 mM, Penicillin 50 U/ml—Streptomycin 50 μg/ml Fetal calf serum (FCS) 10% • Assay medium: DMEM supplemented with L-glutamine 2 mM, Penicillin 50 U/ml, Streptomycin 50 μg/ml FCS 1%. Culture and Treatment
The fibroblasts were seeded in 96-well plates and cultured in culture medium for 24 hours. The medium was then replaced with assay medium containing or not (control) the test compounds or associations in presence or not (non-stimulated control) of the association vitamin C+TGF-beta (20 μg/ml+10 ng/ml). The cells were incubated for 72 hours. All experimental conditions were performed in n=3.
After incubation, culture media were discarded and the cells were rinsed, fixed and permeabilized.
The acquisition of the images (5 photos per well) was performed using INCell Analyzer™ 1000 (GE Healthcare). Representative images for each experimental condition were included in the report.
The labeling was quantified by the measurement of the fluorescence intensity normalized to the total number of cells (Integration of numerical data with the Developer Toolbox 1.5, GE Healthcare software).

HMVEC/NHDF co-culture = assay: Pseudotube formation (branching points) in VEGF-stimulated HMVEC/NHDF co-culture, in situ immunolabeling; type: cell-based, human; settings: VEGF 100 ng/ml, 10 days; for Number of branching points, Mean: n=3; for Number of branching points: single replicate
Experimental: Analysis of pseudotube formation in a HMVEC/NHDF co-culture by in situ immunolabeling.
Human Microvascular Endothelial Cells (HMVEC) • Cell type: HMVEC, used at the 7th passage
HMVEC/NHDF Co-Culture • Cell type: HMVEC+NHDF (50:50 ratio) • Culture conditions: 37° C., 5% CO2 • Co-culture medium: Endothelial Cell Basal Medium 2 (EBM-2) supplemented with Fetal calf serum (FCS) 5%, rhEGF, rhFGF, R3 IGF-1, hydrocortisone, vitamin C and gentamycin +
DMEM supplemented with L-glutamine 2 mM, Penicillin 50 U/ml, Streptomycin 50 μg/ml FCS 10%.
The HMVEC and NHDF were seeded in 96-well plates and co-cultured in co-culture medium for 24 hours. The medium was then removed and replaced by co-culture medium containing or not (control) the test compounds, associations or the reference, suramine at 5 μM, in presence or not (non-stimulated control) of the inducer, VEGF at 100 ng/ml. The cells were incubated for 10 days with treatment renewal after 72 hours of incubation. All experimental conditions were performed in n=3.
After incubation, culture media were discarded and the cells were rinsed, fixed and permeabilized. The cells were then labeled using a primary antibody anti-Von Willebrand Factor.
The formation of pseudotubes was observed using a NIKON Diaphot 300 microscope (lens×4). The images were captured (1 photo per well) using a NIKON DS-Fi1 camera and NIS-Elements 3.10 software. Then the number of branching points within the pseudotube network was counted on each image.

In the case of `COc1cc2c(cc1O)CCC(C)(C)O2` [Dimethylmethoxy chromanol], the “Collagen I, Mean (basic data)” value ([1]; NHDF + vitamin C+TGF-beta (20 μg/ml+10 ng/ml), n=3) is reported as 274529, the “Collagen I branching points (basic data)” value ([1]; NHDF + vitamin C+TGF-beta (20 μg/ml+10 ng/ml), single replicate) is reported as 250891 and 283414 and 289284 and the “% Stimulated control (collagen I)” value ([1]; NHDF + vitamin C+TGF-beta) is reported as 73%. For the same molecule, the “% inhibition (collagen I expression)” value ([1]; NHDF + vitamin C+TGF-beta) was 71%, the “% stimulated control (branching points)” value (HMVEC/NHDF co-culture; 6 μg/ml) was 79% and the “Number of branching points, Mean” value (HMVEC/NHDF co-culture; 6 μg/ml) was 98. For the same molecule, the “Number of branching points” value (HMVEC/NHDF co-culture; 6 μg/ml) was 83 and 104 and 109 and the inhibition at 6 µg/mL (HMVEC/NHDF co-culture; Homo sapiens, 240 h, 6 μg/ml) was 21%.
For `Oc1ccc(/C=C/c2cc(O)cc(O)c2)cc1` [Resveratrol, 3,5,4′-trihydroxy-trans-stilbene], the “% stimulated control (branching points)” value (HMVEC/NHDF co-culture; 2 μg/ml) was 113%, the “Number of branching points, Mean” value (HMVEC/NHDF co-culture; 2 μg/ml) was 141 and the “Number of branching points” value (HMVEC/NHDF co-culture; 2 μg/ml) was 139 and 157 and 126. For the same molecule, the inhibition at 2 µg/mL (HMVEC/NHDF co-culture; Homo sapiens, 240 h, 2 μg/ml) was -13%.
For `Cc1ccc(C(=O)Nc2ccc(S(=O)(=O)O)c3cc(S(=O)(=O)O)cc(S(=O)(=O)O)c23)cc1NC(=O)c1cccc(NC(=O)Nc2cccc(C(=O)Nc3cc(C(=O)Nc4ccc(S(=O)(=O)O)c5cc(S(=O)(=O)O)cc(S(=O)(=O)O)c45)ccc3C)c2)c1` [Suramine, reference compound], the “% stimulated control (branching points)” value (HMVEC/NHDF co-culture; 5 μM) was 63%, the “Number of branching points, Mean” value (HMVEC/NHDF co-culture; 5 μM) was 78 and the “Number of branching points” value (HMVEC/NHDF co-culture; 5 μM) was 72 and 85 and 79. It also gave an inhibition at 5 µM (HMVEC/NHDF co-culture; Homo sapiens, 240 h, 5 μM) of 37%.
